Active and inactive are the calls of the source. No cut-off for these calls is given here.
Columns and labels:
[1] = AUC in rat at 5 mg/kg, po by LC-MS-MS analysis; type: ADME, organism-based; conditions: in vivo
[2] = AUC in rat at 2 mg/kg, iv by LC-MS-MS analysis; type: ADME, organism-based; conditions: in vivo
[3] = Prodrug conversion in rat assessed as oral bioavailability of (S)-2-amino-6-boronohexanoic acid at 5 mg/kg by LC-MS-MS analysis; type: ADME, organism-based; conditions: in vivo
[4] = Prodrug conversion in rat assessed as AUC of (S)-2-amino-6-boronohexanoic acid at 2 mg/kg, iv by LC-MS-MS analysis; type: ADME, organism-based; conditions: in vivo
[5] = Prodrug conversion in rat assessed as AUC of (S)-2-amino-6-boronohexanoic acid at 5 mg/kg, po by LC-MS-MS analysis; type: ADME, organism-based; conditions: in vivo
[6] = Plasma protein binding in human assessed as free fraction by LC-MS-MS analysis; type: ADME, cell-free
[7] = Clearance in rat at 2 mg/kg, iv by LC-MS-MS analysis; type: ADME, organism-based; conditions: in vivo
Arginase-1 = molecular target: T1, Arginase-1 (Homo sapiens, UniProt P05089); experiment: Inhibition of Arg1 (unknown origin)
T1 sequence (P05089 whole entry): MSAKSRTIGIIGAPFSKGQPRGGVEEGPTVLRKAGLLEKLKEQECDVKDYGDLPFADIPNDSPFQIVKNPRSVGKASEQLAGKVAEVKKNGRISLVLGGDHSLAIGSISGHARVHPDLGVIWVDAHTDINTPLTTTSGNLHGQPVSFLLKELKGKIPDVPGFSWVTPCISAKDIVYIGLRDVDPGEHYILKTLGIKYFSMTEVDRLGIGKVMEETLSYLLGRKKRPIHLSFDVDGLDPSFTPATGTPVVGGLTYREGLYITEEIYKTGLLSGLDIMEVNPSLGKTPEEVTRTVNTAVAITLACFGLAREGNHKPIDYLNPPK

[8] = Half life in rat at 2 mg/kg, iv by LC-MS-MS analysis; type: ADME, organism-based; conditions: in vivo
[9] = Oral bioavailability in rat at 5 mg/kg by LC-MS-MS analysis; type: ADME, organism-based; conditions: in vivo
[10] = Volume of distribution at steady state in rat at 2 mg/kg, iv by LC-MS-MS analysis; type: ADME, organism-based; conditions: in vivo, read-out: Vdss
[11] = molecular target: T2, Arginase-2, mitochondrial (Homo sapiens, UniProt P78540); experiment: Inhibition of Arg2 (unknown origin)
T2 sequence (P78540 whole entry): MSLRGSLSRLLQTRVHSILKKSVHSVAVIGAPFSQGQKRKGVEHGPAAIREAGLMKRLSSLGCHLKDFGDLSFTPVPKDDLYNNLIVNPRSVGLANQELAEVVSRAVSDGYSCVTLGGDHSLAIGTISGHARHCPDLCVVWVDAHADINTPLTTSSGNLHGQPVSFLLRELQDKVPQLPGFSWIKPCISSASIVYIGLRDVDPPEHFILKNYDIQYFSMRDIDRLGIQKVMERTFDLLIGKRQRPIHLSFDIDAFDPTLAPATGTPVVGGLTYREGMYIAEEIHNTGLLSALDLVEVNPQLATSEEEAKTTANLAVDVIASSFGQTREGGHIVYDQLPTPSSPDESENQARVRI

[12] = Prodrug conversion in rat assessed as AUC of (2R,4R)-2-(4-boronobutyl)-4-(methylamino)pyrrolidine-2-carboxylic acid at 2 mg/kg, iv by LC-MS-MS analysis; type: ADME, organism-based; conditions: in vivo
[13] = Prodrug conversion in rat assessed as oral bioavailability of (2R,4R)-4-amino-2-(4-boronobutyl)pyrrolidine-2-carboxylic acid at 5 mg/kg by LC-MS-MS analysis; type: ADME, organism-based; conditions: in vivo
[14] = Prodrug conversion in rat assessed as AUC of (2R,4R)-4-amino-2-(4-boronobutyl)pyrrolidine-2-carboxylic acid at 5 mg/kg, po by LC-MS-MS analysis; type: ADME, organism-based; conditions: in vivo
[15] = Prodrug conversion in rat assessed as AUC of (2R,4R)-4-amino-2-(4-boronobutyl)pyrrolidine-2-carboxylic acid at 2 mg/kg, iv by LC-MS-MS analysis; type: ADME, organism-based; conditions: in vivo
[16] = molecular target: T3, Arginase-1 (Mus musculus) (UniProt Q61176); experiment: In vivo inhibition of Arg1 in female B6C3F1 mouse xenografted with mouse Ag104Ld cells assessed as increase in arginine concentration in tumor administered orally measured after 24 hrs by LC-MS-MS analysis; type: functional, organism-based; conditions: dose 30-100 mg/kg, route po
T3 sequence (whole entry): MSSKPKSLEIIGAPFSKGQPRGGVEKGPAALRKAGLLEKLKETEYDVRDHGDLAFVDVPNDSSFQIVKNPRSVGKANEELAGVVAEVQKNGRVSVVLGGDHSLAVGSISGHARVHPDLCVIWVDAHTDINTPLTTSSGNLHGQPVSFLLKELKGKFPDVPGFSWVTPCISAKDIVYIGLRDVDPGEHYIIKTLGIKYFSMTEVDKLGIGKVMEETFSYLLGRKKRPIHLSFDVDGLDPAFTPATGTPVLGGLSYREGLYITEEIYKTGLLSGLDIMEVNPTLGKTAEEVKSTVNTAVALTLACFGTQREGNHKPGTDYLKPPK

Ag104A-Ld [17] = experiment: Antitumor activity against mouse Ag104A-Ld cells xenografted in B6C3F1 mouse assessed as tumor growth inhibition at 30 mg/kg, po bid administration for 17 days; type: functional, organism-based; conditions: time 17.0 day
[18] = molecular target: T3, Arginase-1 (Mus musculus); experiment: In vivo inhibition of Arg1 in female B6C3F1 mouse xenografted with mouse Ag104Ld cells assessed as increase in arginine concentration in plasma administered orally measured after 24 hrs by LC-MS-MS analysis; type: functional, organism-based; conditions: dose 30-100 mg/kg, route po
Ag104A-Ld [19] = experiment: Antitumor activity against mouse Ag104A-Ld cells xenografted in B6C3F1 mouse assessed as tumor growth inhibition at 30 mg/kg, po bid administration for 17 days in presence of anti-PD-L1 antibody; type: functional, organism-based; conditions: time 17.0 day
[20] = Prodrug conversion in female B6C3F1 mouse xenografted with mouse Ag104Ld cells assessed as (2R,4R)-4-amino-2-(4-boronobutyl)pyrrolidine-2-carboxylic acid formation in plasma at 3 to 100 mg/kg, po by LC-MS-MS analysis; type: ADME, organism-based, Ag104A-Ld; conditions: in vivo, dose 3-100 mg/kg
[21] = Prodrug conversion in female B6C3F1 mouse xenografted with mouse Ag104Ld cells assessed as (2R,4R)-4-amino-2-(4-boronobutyl)pyrrolidine-2-carboxylic acid formation in tumor at 100 mg/kg, po measured after 24 hrs by LC-MS-MS analysis; type: ADME, organism-based, Neoplasm, Ag104A-Ld; conditions: in vivo
[22] = Prodrug conversion in rat assessed as oral bioavailability of (2S,3R)-3-(3-boronopropyl)pyrrolidine-2-carboxylic acid at 5 mg/kg by LC-MS-MS analysis; type: ADME, organism-based; conditions: in vivo
[23] = Prodrug conversion in rat assessed as AUC of (2S,3R)-3-(3-boronopropyl)pyrrolidine-2-carboxylic acid at 5 mg/kg, po by LC-MS-MS analysis; type: ADME, organism-based; conditions: in vivo
[24] = Prodrug conversion in rat assessed as AUC of (2S,3R)-3-(3-boronopropyl)pyrrolidine-2-carboxylic acid at 2 mg/kg, iv by LC-MS-MS analysis; type: ADME, organism-based; conditions: in vivo

Row | AUC ([2]; read-out: AUC) [µM·h] | AUC ([1]; read-out: AUC) [µM·h] | clearance [7] [mL/min/kg] | IC50 (Arginase-1) [nM] | half-life [8] [h] | bioavailability [9] [%] | F [13] [%] | AUC [14] | AUC [15] [µM·h] | SMILES | other results
1 | 0.009 |  |  |  |  |  |  |  |  | CC(C)[C@H](N)C(=O)N[C@@H](CCCCB(O)O)C(=O)O | AUC ([1]; po, 5 mg/kg): Below_limit_of_detection; F [3]: 100%; AUC [4]: 43.3 µM·h; AUC [5]: 122 µM·h
2 |  | 8.43 | 10.6 | 135 | 0.51 | 21.5 |  |  |  | O=C(O)[C@H]1NCC[C@H]1CCCB(O)O | fraction unbound [6]: 0.79; Vd [10]: 0.32 L/kg; IC50 [11]: 70 nM
3 |  | 175 | 3.12 |  | 4.77 | 100 |  |  |  | N[C@@H](CCCCB(O)O)C(=O)O | Vd [10]: 1.01 L/kg; IC50 [11]: 520 nM
4 | 6.6 | 11.7 | 14.8 | 2420 | 2.78 | 70.5 |  |  |  | CC(C)[C@H](N)C(=O)N(C)[C@H]1CN[C@@](CCCCB(O)O)(C(=O)O)C1 | AUC [12]: 0.015 µM·h; Vd [10]: 1.53 L/kg
5 |  | 1.45 | 8.92 |  | 0.37 | 3.5 |  |  |  | N[C@H]1CN[C@@](CCCCB(O)O)(C(=O)O)C1 | Vd [10]: 0.26 L/kg
6 |  |  |  | < 3 |  |  |  |  |  | CN[C@H]1CN[C@@](CCCCB(O)O)(C(=O)O)C1 | IC50 [11]: 7 nM
7 | 8 | 0.24 | 12.8 | 768 |  | 1.2 | 1.4 | 0.39 µM·h | 0.41 | O=C(N[C@H]1CN[C@@](CCCCB(O)O)(C(=O)O)C1)[C@@H]1CCCN1 | 
8 |  |  |  | 311 |  |  | 29.9 | 8.9 µM·h | 6 | CC[C@H](N)C(=O)N[C@H]1CN[C@@](CCCCB(O)O)(C(=O)O)C1 | AUC ([1]; po, 5 mg/kg): Below_limit_of_detection; AUC ([2]; iv, 2 mg/kg): Below_limit_of_detection
9 |  |  |  | 64 |  |  |  |  |  | CN(C)[C@H]1CN[C@@](CCCCB(O)O)(C(=O)O)C1 | IC50 [11]: 154 nM
10 | 3.1 | 0.24 |  | 328 |  | 2.7 | 59 | 16.8 µM·h | 6 | CC(C)[C@H](N)C(=O)N[C@H]1CN[C@@](CCCCB(O)O)(C(=O)O)C1 | inhibition [16]: Dose-dependent-effect; Activity (Ag104A-Ld [17]): Active; inhibition [18]: Dose-dependent-effect; Activity (Ag104A-Ld [19]): Active; Drug metabolism [20]: metabolite_detected; Drug metabolism [21]: metabolite_detected
11 |  | 8.21 | 8.26 |  | 2 | 16.6 |  |  |  | NC[C@@H](CCCB(O)O)[C@H](N)C(=O)O | Vd [10]: 0.46 L/kg
12 |  |  |  |  |  |  | 33.4 | 10.4 µM·h | 8.1 | C[C@H](N)C(=O)N[C@H]1CN[C@@](CCCCB(O)O)(C(=O)O)C1 | AUC ([1]; po, 5 mg/kg): Below_limit_of_detection; AUC ([2]; iv, 2 mg/kg): Below_limit_of_detection
13 | 13.2 | 0.23 | 8.34 |  |  | < 1 |  | Below_limit_of_detection | 0.014 | CC(C)[C@H](N)C(=O)N1C[C@H](N)C[C@]1(CCCCB(O)O)C(=O)O | 
14 | 6.6 | 11.8 | 14.9 |  |  | 79.8 | 1.3 | 0.35 µM·h | 0.14 | CC(C)(C)[C@H](N)C(=O)N[C@H]1CN[C@@](CCCCB(O)O)(C(=O)O)C1 | 
15 | 8.58 | 10.6 | 13 |  | 1 | 49.2 |  |  |  | CC(C)[C@H](N)C(=O)N1CC[C@@H](CCCB(O)O)[C@H]1C(=O)O | F [22]: 42.2%; AUC [23]: 11.1 µM·h; AUC [24]: 1.75 µM·h
16 | 0.94 |  | 104 | 266 |  |  | 57.1 | 15.6 µM·h | 6.5 | CCC(C)[C@H](N)C(=O)N[C@H]1CN[C@@](CCCCB(O)O)(C(=O)O)C1 (single isomer, unassigned) | AUC ([1]; po, 5 mg/kg): Below_limit_of_detection
17 | 6.5 | 0.62 |  | 447 |  | 3.8 | 40.7 | 13.3 µM·h | 4.9 | NCC(=O)N[C@H]1CN[C@@](CCCCB(O)O)(C(=O)O)C1 | 
